Values joined by “and” are separate entries in the source; they are usually repeats but may differ in a detail not shown here. Equal values may be shown once. Where a name gives a salt, the structure may show the parent alone.
Assay: Gemcitabine plasma pharmacokinetics in Slc28a1+/+ and Slc28a1-/- mice
Details: Gemcitabine in plasma, iv gemcitabine 50mg/kg, per mouse

Q: With Nc1ccn([C@@H]2O[C@H](CO)[C@@H](O)C2(F)F)c(=O)n1 [dFdC, Gemcitabine hydrochloride, reference compound] as the molecule, how does the AUC_%Back_Ext_obs (KO mice) read?
A: 23.4974% and 21.9481% and 43.9469% and 42.6077% and 48.9911% and 43.8068%

Q: And the AUC_%Back_Ext_pred (KO mice)?
A: 23.4818% and 21.941% and 44.1109% and 43.4198% and 49.1119% and 43.8762%

Q: And the AUC_%Extrap_obs (KO mice)?
A: 23.7% and 27.5311% and 0.9315% and 2.802% and 0.4504% and 6.001%

Q: And the AUC_%Extrap_pred (KO mice)?
A: 23.7507% and 27.5543% and 0.5618% and 0.9493% and 0.2051% and 5.852%

Q: And the AUCall (KO mice)?
A: 36446.4 ng·min/mL and 50206 ng·min/mL and 39423.8 ng·min/mL and 51060.7 ng·min/mL and 66882.1 ng·min/mL and 76930.3 ng·min/mL

Q: And the AUClast (KO mice)?
A: 34957 ng·min/mL and 48549.9 ng·min/mL and 38537.7 ng·min/mL and 51060.7 ng·min/mL and 66035.4 ng·min/mL and 75549.7 ng·min/mL

Q: And the AUClast_D (KO mice)?
A: 699.14 kg·ng·min/mL/mg and 970.999 kg·ng·min/mL/mg and 770.754 kg·ng·min/mL/mg and 1021.21 kg·ng·min/mL/mg and 1320.71 kg·ng·min/mL/mg and 1510.99 kg·ng·min/mL/mg

Q: What about the AUMCINF_obs (KO mice) of the same molecule?
A: 6487547 min*min*ng/mL and 15108021 min*min*ng/mL and 317047 min*min*ng/mL and 1417805 min*min*ng/mL and 460548 min*min*ng/mL and 2237155 min*min*ng/mL

Q: And the AUMCINF_pred (KO mice)?
A: 6504522 min*min*ng/mL and 15124898 min*min*ng/mL and 306594 min*min*ng/mL and 1123964 min*min*ng/mL and 449037 min*min*ng/mL and 2195280 min*min*ng/mL

Q: What about the AUMC_%Extrap_obs (KO mice) of the same molecule?
A: 93.2939% and 96.2322% and 8.26% and 31.0459% and 4.579% and 71.0667%

Q: What about the AUMC_%Extrap_pred (KO mice) of the same molecule?
A: 93.3114% and 96.2364% and 5.1318% and 13.0191% and 2.133% and 70.5148%

Q: What about the AUMClast (KO mice) of the same molecule?
A: 435061 min*min*ng/mL and 569242 min*min*ng/mL and 290860 min*min*ng/mL and 977634 min*min*ng/mL and 439460 min*min*ng/mL and 647283 min*min*ng/mL

Q: And the C0 (KO mice)?
A: 2226.24 ng/mL and 3096.19 ng/mL and 4174.86 ng/mL and 5972.33 ng/mL and 9031.34 ng/mL and 9852.43 ng/mL

Q: What about the Cl_obs (KO mice) of the same molecule?
A: 1091.34 mL/min/kg and 746.334 mL/min/kg and 1285.35 mL/min/kg and 951.789 mL/min/kg and 753.759 mL/min/kg and 622.099 mL/min/kg

Q: And the Cl_pred (KO mice)?
A: 1090.62 mL/min/kg and 746.095 mL/min/kg and 1290.14 mL/min/kg and 969.932 mL/min/kg and 755.617 mL/min/kg and 623.084 mL/min/kg

Q: And the Clast (KO mice)?
A: 24.8237 ng/mL and 27.6006 ng/mL and 29.5353 ng/mL and 24.934 ng/mL and 28.2215 ng/mL and 23.0093 ng/mL

Q: And the Clast_pred (KO mice)?
A: 24.8933 ng/mL and 27.6326 ng/mL and 17.7456 ng/mL and 8.289 ng/mL and 12.8177 ng/mL and 22.4033 ng/mL

Q: And the Cmax_D (KO mice)?
A: 41.5984 kg·ng/mL/mg and 55.7076 kg·ng/mL/mg and 53.2658 kg·ng/mL/mg and 59.6169 kg·ng/mL/mg and 79.356 kg·ng/mL/mg and 84.6224 kg·ng/mL/mg

Q: What about the HL_Lambda_z (KO mice) of the same molecule?
A: 303.191 min and 463.2 min and 8.504 min and 40.9198 min and 7.338 min and 145.3 min

Q: What about the Lambda_z (KO mice) of the same molecule?
A: 0.002286 min⁻¹ and 0.001496 min⁻¹ and 0.08151 min⁻¹ and 0.01694 min⁻¹ and 0.09446 min⁻¹ and 0.00477 min⁻¹

Q: And the MRTINF_obs (KO mice)?
A: 141.603 min and 225.512 min and 8.15 min and 26.989 min and 6.943 min and 27.8346 min

Q: And the MRTINF_pred (KO mice)?
A: 141.879 min and 225.692 min and 7.911 min and 21.8034 min and 6.786 min and 27.3569 min

Q: What about the MRTlast (KO mice) of the same molecule?
A: 12.4456 min and 11.7249 min and 7.547 min and 19.1465 min and 6.655 min and 8.568 min

Q: And the Tlast (KO mice)?
A: 120 min and 60 min and 240 min

Q: What about the Tmax (KO mice) of the same molecule?
A: 5 min

Q: What about the Vss_obs (KO mice) of the same molecule?
A: 154.537 L/kg and 168.308 L/kg and 10.4759 L/kg and 25.6879 L/kg and 5.23323 L/kg and 17.3159 L/kg

Q: What about the Vss_pred (KO mice) of the same molecule?
A: 154.735 L/kg and 168.388 L/kg and 10.2063 L/kg and 21.1478 L/kg and 5.12762 L/kg and 17.0456 L/kg

Q: And the Vz_obs (KO mice)?
A: 477.366 L/kg and 498.742 L/kg and 15.7693 L/kg and 56.1887 L/kg and 7.97936 L/kg and 130.407 L/kg

Q: What about the Vz_pred (KO mice) of the same molecule?
A: 477.049 L/kg and 498.582 L/kg and 15.8281 L/kg and 57.2597 L/kg and 7.99903 L/kg and 130.613 L/kg

Q: And the AUCINF_D_obs (WT mice)?
A: 1342.37 kg·ng·min/mL/mg and 2003.95 kg·ng·min/mL/mg and 1404.16 kg·ng·min/mL/mg and 1832.16 kg·ng·min/mL/mg and 1677.59 kg·ng·min/mL/mg and 1947.35 kg·ng·min/mL/mg

Q: And the AUCINF_D_pred (WT mice)?
A: 1351.51 kg·ng·min/mL/mg and 2009.55 kg·ng·min/mL/mg and 1397.88 kg·ng·min/mL/mg and 1826.34 kg·ng·min/mL/mg and 1669.05 kg·ng·min/mL/mg and 1936.73 kg·ng·min/mL/mg

Q: What about the AUCINF_obs (WT mice) of the same molecule?
A: 100198 ng·min/mL and 70207.8 ng·min/mL and 91608.1 ng·min/mL and 83879.3 ng·min/mL and 97367.3 ng·min/mL

Q: What about the AUCINF_pred (WT mice) of the same molecule?
A: 100478 ng·min/mL and 69893.8 ng·min/mL and 91317 ng·min/mL and 83452.5 ng·min/mL and 96836.3 ng·min/mL

Q: And the AUC_%Back_Ext_obs (WT mice)?
A: 12.8582% and 20.8763% and 29.2762% and 32.2576% and 32.4305% and 25.1142%

Q: What about the AUC_%Back_Ext_pred (WT mice) of the same molecule?
A: 12.7713% and 20.8181% and 29.4077% and 32.3604% and 32.5963% and 25.252%
